Test system: 857933-349-R-J2-PDC complex spheroid viability
Test: Anticancer human tumor 857933-349-R-J2-PDC patient-derived colon adenocarcinoma cell line growth inhibition [POLQ]
Conditions: for IC50: curve of first compound; for viability, T/C: stronger effect = lower value; active = viability on the fitted dose curve at most 10% of control; inactive = the rest
Summary of the method: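 Growth inhibition in 3D: complex spheroids (tumor PDC, HUVEC, MSC) treated with POLQ inhibitor combinations; where Cmax unknown, highest tested concentration 10 microM, except SN-38 at 1 microM.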

[1] = second compound 0.0316 µM, first compound 0.0316 µM
[2] = second compound 0.0316 µM, first compound 0.1 µM
[3] = second compound 0.0316 µM, first compound 0.316 µM
[4] = second compound 0.0316 µM, first compound 1 µM
[5] = second compound 0.1 µM, first compound 0.0316 µM
[6] = second compound 0.1 µM, first compound 0.1 µM
[7] = second compound 0.1 µM, first compound 0.316 µM
[8] = second compound 0.1 µM, first compound 1 µM
[9] = second compound 0.316 µM, first compound 0.0316 µM
[10] = second compound 0.316 µM, first compound 0.1 µM
[11] = second compound 0.316 µM, first compound 0.316 µM
[12] = second compound 0.316 µM, first compound 1 µM
[13] = second compound 1 µM, first compound 0.0316 µM
[14] = second compound 1 µM, first compound 0.1 µM
[15] = second compound 1 µM, first compound 0.316 µM
[16] = second compound 1 µM, first compound 1 µM
[17] = second compound 3.16 µM, first compound 0.0316 µM
[18] = second compound 3.16 µM, first compound 0.1 µM
[19] = second compound 3.16 µM, first compound 0.316 µM
[20] = second compound 3.16 µM, first compound 1 µM
[21] = second compound 10 µM, first compound 0.0316 µM
[22] = second compound 10 µM, first compound 0.1 µM
[23] = second compound 10 µM, first compound 0.316 µM
[24] = second compound 10 µM, first compound 1 µM
[25] = second compound 0.0316 µM, first compound 3.16 µM
[26] = second compound 0.0316 µM, first compound 10 µM
[27] = second compound 0.1 µM, first compound 3.16 µM
[28] = second compound 0.1 µM, first compound 10 µM
[29] = second compound 0.316 µM, first compound 3.16 µM
[30] = second compound 0.316 µM, first compound 10 µM
[31] = second compound 1 µM, first compound 3.16 µM
[32] = second compound 1 µM, first compound 10 µM
[33] = second compound 3.16 µM, first compound 3.16 µM
[34] = second compound 3.16 µM, first compound 10 µM
[35] = second compound 10 µM, first compound 3.16 µM
[36] = second compound 10 µM, first compound 10 µM
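Note: spheroids exposed to compounds for seven days before readout.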

CCc1c2c(nc3ccc(O)cc13)-c1cc3c(c(=O)n1C2)COC(=O)[C@]3(O)CC + Cc1cccc(N(C)C(=O)C2C(O)CCN2c2nc(C)cc(C(F)(F)F)c2C#N)c1
21.5 nM: IC50 (second compound 0.0316 µM)
14 nM: IC50 (second compound 0.316 µM)
inactive: viability, T/C (second compound 0.0316 µM, first compound 0.00316 µM) 75% | viability, T/C (second compound 0.0316 µM, first compound 0.01 µM) 78.5% | viability, T/C [1] 36.5% | viability, T/C [2] 20% | viability, T/C [3] 16.1% | viability, T/C [4] 5.22% | viability, T/C (second compound 0.1 µM, first compound 0.00316 µM) 70.1% | viability, T/C (second compound 0.1 µM, first compound 0.01 µM) 68.6% | viability, T/C [5] 27.4% | viability, T/C [6] 17.7% | viability, T/C [7] 13.2% | viability, T/C [8] 3.51% | viability, T/C (second compound 0.316 µM, first compound 0.00316 µM) 67% | viability, T/C (second compound 0.316 µM, first compound 0.01 µM) 59.5% | viability, T/C [9] 32% | viability, T/C [10] 20.2% | viability, T/C [11] 15% | viability, T/C (second compound 1 µM, first compound 0.00316 µM) 73.9% | viability, T/C (second compound 1 µM, first compound 0.01 µM) 62.5% | viability, T/C [13] 30.8% | viability, T/C [14] 19.8% | viability, T/C [15] 14.1% | viability, T/C (second compound 3.16 µM, first compound 0.00316 µM) 72.9% | viability, T/C (second compound 3.16 µM, first compound 0.01 µM) 59.6% | viability, T/C [17] 23.5% | viability, T/C [18] 19.1% | viability, T/C [19] 12.3% | viability, T/C [20] 4.25% | viability, T/C (second compound 10 µM, first compound 0.00316 µM) 65.1% | viability, T/C (second compound 10 µM, first compound 0.01 µM) 60.2% | viability, T/C [21] 22.4% | viability, T/C [22] 17.7% | viability, T/C [23] 17.1% | viability, T/C [24] 2.64%
16.7 nM: IC50 (second compound 0.1 µM)
15.6 nM: IC50 (second compound 1 µM)
active: viability, T/C [12] 4.16% | viability, T/C [16] 5.21%
13.4 nM: IC50 (second compound 3.16 µM)
13.6 nM: IC50 (second compound 10 µM)

Nc1ccn(C2OC(CO)C(O)C2(F)F)c(=O)n1 (stereo not drawn) + Cc1cccc(N(C)C(=O)C2C(O)CCN2c2nc(C)cc(C(F)(F)F)c2C#N)c1
175 nM: IC50 (second compound 0.1 µM)
inactive: viability, T/C [1] 81.5% | viability, T/C [2] 62.4% | viability, T/C [3] 35.5% | viability, T/C [4] 15.5% | viability, T/C [25] 13.2% | viability, T/C [26] 11.9% | viability, T/C [5] 82.9% | viability, T/C [6] 68.2% | viability, T/C [7] 30.5% | viability, T/C [8] 15.2% | viability, T/C [27] 12.4% | viability, T/C [28] 7.96% | viability, T/C [9] 73.8% | viability, T/C [10] 54% | viability, T/C [11] 26.5% | viability, T/C [12] 15.5% | viability, T/C [29] 13.2% | viability, T/C [30] 10.8% | viability, T/C [13] 78.3% | viability, T/C [14] 61.4% | viability, T/C [15] 23.1% | viability, T/C [16] 18.2% | viability, T/C [31] 12.1% | viability, T/C [32] 10% | viability, T/C [17] 65.2% | viability, T/C [18] 60% | viability, T/C [19] 30.7% | viability, T/C [20] 15.7% | viability, T/C [33] 10.1% | viability, T/C [34] 10.3% | viability, T/C [21] 80.6% | viability, T/C [22] 53.7% | viability, T/C [23] 33.6% | viability, T/C [24] 17.4% | viability, T/C [35] 12.2% | viability, T/C [36] 11.4%
146 nM: IC50 (second compound 3.16 µM)
169 nM: IC50 (second compound 0.0316 µM)
141 nM: IC50 (second compound 1 µM)
117 nM: IC50 (second compound 0.316 µM)
126 nM: IC50 (second compound 10 µM)

O=C(c1cc(Cc2n[nH]c(=O)c3ccccc23)ccc1F)N1CCN(C(=O)C2CC2)CC1 + Cc1cccc(N(C)C(=O)C2C(O)CCN2c2nc(C)cc(C(F)(F)F)c2C#N)c1
inactive: viability, T/C [1] 109% | viability, T/C [2] 99.4% | viability, T/C [3] 85.3% | viability, T/C [4] 72.5% | viability, T/C [25] 93.4% | viability, T/C [26] 84.7% | viability, T/C [5] 109% | viability, T/C [6] 101% | viability, T/C [7] 93.8% | viability, T/C [8] 83.8% | viability, T/C [27] 69.7% | viability, T/C [28] 72.9% | viability, T/C [9] 107% | viability, T/C [10] 98.1% | viability, T/C [11] 70.5% | viability, T/C [12] 96.2% | viability, T/C [29] 89.8% | viability, T/C [30] 80.3% | viability, T/C [13] 84.7% | viability, T/C [14] 80.9% | viability, T/C [15] 86.2% | viability, T/C [16] 79% | viability, T/C [31] 73.7% | viability, T/C [32] 82.6% | viability, T/C [17] 67% | viability, T/C [18] 79.2% | viability, T/C [19] 81.6% | viability, T/C [20] 87.2% | viability, T/C [33] 72.8% | viability, T/C [34] 92.2% | viability, T/C [21] 86.5% | viability, T/C [22] 110% | viability, T/C [23] 82.6% | viability, T/C [24] 84% | viability, T/C [35] 71.3% | viability, T/C [36] 79.9%
> 10000 nM: IC50 (second compound 0.0316 µM) | IC50 (second compound 0.1 µM) | IC50 (second compound 0.316 µM) | IC50 (second compound 1 µM) | IC50 (second compound 3.16 µM) | IC50 (second compound 10 µM)

O=c1[nH]cc(F)c(=O)[nH]1 + Cc1cccc(N(C)C(=O)C2C(O)CCN2c2nc(C)cc(C(F)(F)F)c2C#N)c1
3100 nM: IC50 (second compound 0.316 µM)
2930 nM: IC50 (second compound 3.16 µM)
2100 nM: IC50 (second compound 10 µM)
3340 nM: IC50 (second compound 1 µM)
2470 nM: IC50 (second compound 0.0316 µM)
inactive: viability, T/C [1] 90.7% | viability, T/C [2] 85.8% | viability, T/C [3] 95.5% | viability, T/C [4] 77.8% | viability, T/C [25] 42.6% | viability, T/C [26] 29.5% | viability, T/C [5] 123% | viability, T/C [6] 109% | viability, T/C [7] 106% | viability, T/C [8] 74.9% | viability, T/C [27] 50% | viability, T/C [28] 30% | viability, T/C [9] 102% | viability, T/C [10] 105% | viability, T/C [11] 80.3% | viability, T/C [12] 82% | viability, T/C [29] 43.9% | viability, T/C [30] 34.8% | viability, T/C [13] 94.3% | viability, T/C [14] 95.3% | viability, T/C [15] 77.4% | viability, T/C [16] 85.8% | viability, T/C [31] 50.7% | viability, T/C [32] 30.6% | viability, T/C [17] 93.8% | viability, T/C [18] 92.6% | viability, T/C [19] 85.8% | viability, T/C [20] 69.7% | viability, T/C [33] 49.1% | viability, T/C [34] 27.6% | viability, T/C [21] 90.8% | viability, T/C [22] 122% | viability, T/C [23] 99.2% | viability, T/C [24] 68.9% | viability, T/C [35] 41.9% | viability, T/C [36] 29.3%
3060 nM: IC50 (second compound 0.1 µM)

— PubChem BioAssay AID1963836 (Molecular Pharmacology Branch, DTP, NCI, 2024)
